ED50 and L/CE data for five molecules are collected here from ChEMBL document CHEMBL1128206, “Substituted 2-azaspiro[5.3]nonan-1-ones as potent cholesterol absorption inhibitors: defining a binding conformation for SCH 48461” (1995).

The test system of assay [1] is Cricetinae gen. sp. The assay can be described thus: Effective concentration was evaluated when liver cholesterol ester level reduction was 87%. The class given is functional, Cricetulus griseus.
The test system of assay [2] is Cricetinae gen. sp. As to the kind of experiment: Effective concentration was evaluated when liver cholesterol ester level reduction was 17%. The class given is functional, Cricetulus griseus.
The nature of assay [3]: Compound was evaluated in vivo for the reduction of liver cholesterol ester level at the rate 5 mpk. The class given is functional.
Assay [4] can be described thus: Compound was evaluated in vivo for the reduction of liver cholesterol ester level at the rate 10 mpk. The class given is functional.
A short description of assay [5]: Compound was evaluated in vivo for the reduction of liver cholesterol ester level at the rate 50 mpk. In kind it is functional.

For `COc1ccc([C@@H]2N(c3ccc(OC)cc3)C(=O)C23CCC(c2ccccc2)CC3)cc1` (stereo partly drawn), the ED50 – broadly, the midpoint of the dose-response relation – in assay [1] is above 50 mg/kg; in assay [2], 3 mg/kg.
In assay [3], `COc1ccc([C@H]2[C@H](CCCc3ccccc3)C(=O)N2c2ccc(OC)cc2)cc1` registered a L/CE of 0%.
On to `COc1ccc([C@@H]2[C@H](CCCc3ccccc3)C(=O)N2c2ccc(OC)cc2)cc1`, for which the L/CE was determined as 69% in assay [4] and 0% in assay [5].
`COc1ccc([C@H]2[C@@H](CCCc3ccccc3)C(=O)N2c2ccc(OC)cc2)cc1` gave a L/CE in assay [4] of 0%.
Turning to `COc1ccc([C@@H]2[C@@H](CCCc3ccccc3)C(=O)N2c2ccc(OC)cc2)cc1` [SCH-48461], the L/CE was 66% in assay [3] and 0% in assay [5].
